Source: patent US8247401B2, “P2X3 receptor antagonists for treatment of pain” (Merck Sharp & Dohme Corp., priority 2007, dated 2012)

The compounds below were run against T1, human P2X3 (Homo sapiens, UniProt P56373) (assay: Intracellular Calcium Measurement to Assess Antagonist Affinity (FLIPR, Fluo-4)). Settings: Intracellular Calcium Measurement assay; agonist α,β-meATP at EC50.
T1 construct: expressed in transfected cells
T1 sequence (P56373 1-397): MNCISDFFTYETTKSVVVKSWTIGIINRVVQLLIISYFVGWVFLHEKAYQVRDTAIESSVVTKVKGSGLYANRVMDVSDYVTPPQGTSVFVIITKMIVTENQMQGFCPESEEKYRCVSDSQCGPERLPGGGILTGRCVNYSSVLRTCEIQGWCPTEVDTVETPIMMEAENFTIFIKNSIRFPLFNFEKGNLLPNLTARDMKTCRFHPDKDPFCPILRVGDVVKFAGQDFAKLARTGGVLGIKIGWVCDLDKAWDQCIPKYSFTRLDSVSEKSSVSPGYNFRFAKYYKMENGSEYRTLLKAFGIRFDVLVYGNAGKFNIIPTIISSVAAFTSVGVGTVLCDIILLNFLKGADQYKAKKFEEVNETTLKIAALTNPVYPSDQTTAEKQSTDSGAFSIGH
Format: cell-based
Excerpt: Generation of a Human P2X3 and P2X2/3 Stable Cell Line—Human P2X3 receptor cDNA (Accession number NM_002559) was subcloned as a 5′XhoI and 3′HindIII fragment into the expression vector pcDNA5/FRT (Invitrogen). Human P2X2 receptor cDNA (Accession number NM_174873) was subcloned as a 5′EcoRI and 3′NotI fragment into the expression vector pIRESneo2 (BD Biosciences Clontech). The human P2X3 expression construct was transfected using Lipofectamine 2000 (Invitrogen) into Flp-in—293 cells (Invitrogen) according to the manufacturer's directions. Cells positive for flp-mediated recombination of […] P2X3 were selected using 150 μg/ml hygromycin. The stable human P2X3 cell line was co-transfected with the human P2X2 expression construct using Lipofectamine 2000 as above and co-transfected cells selected using […] hygromycin and 1 mg/ml G418. The stable P2X3 cell line was propagated in DMEM, 10% FBS, 100 μg/ml hygromycin, and 100 units/ml penicillin and 100 μg/ml streptomycin, and maintained at 37° and 95% humidity. The stable P2X2/3 cell line was propagated as above with the addition of 500 μg/ml G418.
Intracellular Calcium Measurement to Assess Antagonist Affinity—A fluorescent imaging plate reader (FLIPR; Molecular Devices) was used to monitor intracellular calcium levels using the calcium-chelating dye Fluo-4 (Molecular Probes). The excitation and emission wavelengths used to monitor fluorescence were 488 nm and 530 nm, respectively. Cells expressing either human P2X3 or human P2X2/3 were plated at a density of 20,000 cells/well (20 μl/well) in 384-well black-walled plates approximately 20 hours before beginning the assay. On the day of the assay 20 μl of loading buffer (Hank's balanced salt solution, 2.5 mM CaCl2, 20 mM HEPES, 0.1% BSA, 2.5 mM probenecid, TR-40, Fluo-4, and 138 mM NMDG substituted for NaCl) is added and cells dye-loaded for 60 min in the dark at room temperature. Ten minutes prior to adding agonist, the antagonist was added in a volume of 10 μl and allowed to incubate at room temperature. During this period fluorescence data is collected at 3 sec intervals followed by 10 sec intervals. The agonist, α,β-meATP, is added at a 6× concentration ([α,β-meATP]final=EC50). Following agonist addition fluorescence was measured at 5 sec intervals and analyzed based on the increase in peak relative fluorescence units (RFU) compared to the basal fluorescence. Peak fluorescence was used to determine the inhibitory effect at each concentration of antagonist by the following equation: % Inhibition=100*(1−((RFU(drug)−RFU(control))/(RFU(DMSO only)−RFU(control)))) In vitro Electrophysiological Assay—Cells expressing human P2X3 receptors were grown to a confluence of 65-85% 20 to 32 hours prior to assay. […]

Point of comparison: `Cc1ccc(-c2cc(C(=O)N[C@H](C)c3ncc(F)cc3F)cc(-c3nnc(C4CC4)n3C)c2)nc1` [Example 4.3], IC50 11 nM. Against it:
- Cc1ccc(-c2cc(C(=O)NC(C)c3nnc[nH]3)cc(N3CCOCC3)c2)c(F)c1 (stereo in doubt) [Example 4.109, 2′-Fluoro-4′-methyl-5-morpholin-4-yl-N-[(1R)-1-(1H-1,2,4-triazol-3-yl)ethyl]biphenyl-3-carboxamide] — 1.8-fold higher, 20 nM
- Cc1ccc(-c2cc(C(=O)N[C@H](C)c3ccc(F)cn3)cc(-c3ncccc3F)c2)nc1 [Example 4.252, 3-(3-Fluoropyridin-2-yl)-N-[(1R)-1-(5-fluoropyridin-2-yl)ethyl]-5-(5-methylpyridin-2-yl)benzamide] — within 1.5-fold, 8 nM
- C[C@@H](NC(=O)c1cc(-c2ccc(Cl)cn2)cc(C(C)(C)O)c1)c1ccc(C(F)(F)F)[n+]([O-])c1 [Example 4.539, 3-(5-Chloropyridin-2-yl)-5-(1-hydroxy-1-methylethyl)-N-{(1R)-1-[1-oxido-6-(trifluoromethyl)pyridin-3-yl]-ethyl}benzamide] — 2.4-fold higher, 26 nM
